Measured values reported in ChEMBL document CHEMBL5728216, “Cyclopropyl fused thiazine derivatives as beta-secretase inhibitors and methods of use” (2021).

Columns and labels:
Beta-secretase 1 = Beta-secretase 1 (Homo sapiens, UniProt P56817); assay: In Vitro Enzymatic FRET (Fluorescence Resonance Energy Transfer) Assays: The cDNAs for both human recombinant BACE1 and 2 with C-terminal 6-His Tags were cloned into transient protein expression vectors, which were subsequently transfected into mammalian cell lines. These recombinant proteins were further purified using Ni-NTA affinity chromatography (Qiagen). The assay buffer used in these screens was 0.05 M acetate, pH 4.5, 8% DMSO final, 100 μM genapol (which is a nonionic detergent, below its Critical Micelle Concentration). The β-secretase enzyme (0.02 nM for BACE1 and 0.64 nM for BACE2), which was pre-incubated for one hour with the test compound, typically in about 1 uL of DMSO according to a serial dilution, was added thereto. The assay was effectively started by the addition of FRET substrate (50 nM) and the combination was incubated for one hour. The FRET assay was terminated by the addition of tris buffer, which raised the pH to neutrality, and the fluorescence was determined. The FRET substrate was a peptide with commercially available fluorophore and quencher, on opposite sides of the BACE cleavage site. The specific FRET substrate used in this assay was made by Amgen in-house. […]
Beta-secretase 2 = target: T1, Beta-secretase 2 (Homo sapiens, UniProt Q9Y5Z0); assay: These recombinant proteins were further purified using Ni-NTA affinity chromatography (Qiagen).
T1 sequence (Q9Y5Z0 whole entry): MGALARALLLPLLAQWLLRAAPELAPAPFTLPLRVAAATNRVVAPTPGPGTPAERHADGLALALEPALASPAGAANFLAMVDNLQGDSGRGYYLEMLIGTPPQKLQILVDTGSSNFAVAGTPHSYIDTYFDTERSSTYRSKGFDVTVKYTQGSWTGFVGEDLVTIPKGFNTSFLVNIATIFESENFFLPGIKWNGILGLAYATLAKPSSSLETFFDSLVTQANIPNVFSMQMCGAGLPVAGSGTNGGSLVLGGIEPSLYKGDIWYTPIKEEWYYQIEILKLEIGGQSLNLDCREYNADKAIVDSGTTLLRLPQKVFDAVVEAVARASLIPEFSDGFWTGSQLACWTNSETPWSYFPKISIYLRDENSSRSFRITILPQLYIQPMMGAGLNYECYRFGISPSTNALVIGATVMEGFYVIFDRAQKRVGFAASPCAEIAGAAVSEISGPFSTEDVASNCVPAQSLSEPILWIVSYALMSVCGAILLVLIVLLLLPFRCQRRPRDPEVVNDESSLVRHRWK

Cathepsin D = Cathepsin D (Homo sapiens, UniProt P07339); assay: In Vitro Enzymatic FRET Assay: Recombinant CatD was expressed in CHO cells. The assay buffer for CatD was 0.05 M citrate pH 3.5, 10% DMSO final, 5 mM CHAPS. The CatD enzyme (9 nM) was pre-incubated for one hour with inhibitors, typically in about 1 uL of DMSO according to a serial dilution, is added thereto. The assays was effectively started by the addition of different FRET substrates (20 nM for CatD) and the combination was incubated for one hour. The FRET assay was terminated with by addition of tris buffer, which raises the pH to neutrality, and the fluorescence was determined. The FRET substrate was a peptide with commercially available fluorophore and quencher, on opposite sides of the CatD cleavage site. The CatD substrate peptide sequence was based on sequence #1 of Table 1 from Gulnik et al., FEBS Lett. 413(2):379-384 (1997). Proteolytic cleavage of the FRET substrate released quenching of fluorescence (CatD excitation 500 nm and emission 580 nm).; format: cell-based
Sequence of Cathepsin D (P07339 65-162 limits assumed): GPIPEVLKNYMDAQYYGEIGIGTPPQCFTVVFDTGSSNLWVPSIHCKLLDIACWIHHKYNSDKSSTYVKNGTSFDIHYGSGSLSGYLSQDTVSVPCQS
Sequence of Cathepsin D (P07339 169-412 limits assumed): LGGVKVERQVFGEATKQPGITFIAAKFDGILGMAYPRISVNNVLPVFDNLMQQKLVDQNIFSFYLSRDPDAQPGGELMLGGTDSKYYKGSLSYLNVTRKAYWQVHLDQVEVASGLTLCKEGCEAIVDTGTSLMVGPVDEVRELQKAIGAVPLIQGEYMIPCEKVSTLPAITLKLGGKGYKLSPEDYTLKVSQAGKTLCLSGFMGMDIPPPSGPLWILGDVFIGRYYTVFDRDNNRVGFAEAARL

Sequence of Beta-secretase 1 (P56817 whole entry): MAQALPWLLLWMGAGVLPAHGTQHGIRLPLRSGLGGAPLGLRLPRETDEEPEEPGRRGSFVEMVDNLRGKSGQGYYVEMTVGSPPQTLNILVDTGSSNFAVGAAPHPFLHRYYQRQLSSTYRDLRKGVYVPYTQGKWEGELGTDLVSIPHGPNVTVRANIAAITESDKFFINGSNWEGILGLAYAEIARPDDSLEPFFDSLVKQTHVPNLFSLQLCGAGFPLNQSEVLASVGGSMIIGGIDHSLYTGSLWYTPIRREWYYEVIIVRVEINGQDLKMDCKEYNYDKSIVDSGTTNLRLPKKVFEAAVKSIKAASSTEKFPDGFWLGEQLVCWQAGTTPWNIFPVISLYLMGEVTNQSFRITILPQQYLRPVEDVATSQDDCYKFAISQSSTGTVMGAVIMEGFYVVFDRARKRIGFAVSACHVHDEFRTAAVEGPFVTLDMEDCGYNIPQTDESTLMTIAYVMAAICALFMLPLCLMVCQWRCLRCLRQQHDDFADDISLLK

COC[C@]12CC1[C@@](C)(c1cc(C#Cc3ncc(Cl)cc3C)ccc1F)N=C(N)S2 (stereo partly drawn)
IC50 (Beta-secretase 1): 129 nM
IC50 (Beta-secretase 2): 613 nM
IC50 (Cathepsin D): > 400000 nM
